The text below walks through data of patent US20250017914A1, “6-AZA-QUINOLINE DERIVATIVES AND RELATED USES” (Black Diamond Therapeutics, Inc., priority 2021, published 2025).

In general, GI50 refers to the concentration at which growth is held to half of that of the control. A low value points to greater sensitivity of the cells.

In this experiment the target is T1, BaF3 BRAF-KIAA1549 fusion cells (Homo sapiens, UniProt P15056).
T1 construct: The BRAF-KIAA1549 fusion mutant was subcloned into pMXs-IRES-Blasticidin (RTV-016, Cell Biolabs, San Diego, CA); No tag given; Q9HCM3 (UPF0606 protein KIAA1549)
T1 sequence (P15056 whole entry, change not shown, the tested form may be a part): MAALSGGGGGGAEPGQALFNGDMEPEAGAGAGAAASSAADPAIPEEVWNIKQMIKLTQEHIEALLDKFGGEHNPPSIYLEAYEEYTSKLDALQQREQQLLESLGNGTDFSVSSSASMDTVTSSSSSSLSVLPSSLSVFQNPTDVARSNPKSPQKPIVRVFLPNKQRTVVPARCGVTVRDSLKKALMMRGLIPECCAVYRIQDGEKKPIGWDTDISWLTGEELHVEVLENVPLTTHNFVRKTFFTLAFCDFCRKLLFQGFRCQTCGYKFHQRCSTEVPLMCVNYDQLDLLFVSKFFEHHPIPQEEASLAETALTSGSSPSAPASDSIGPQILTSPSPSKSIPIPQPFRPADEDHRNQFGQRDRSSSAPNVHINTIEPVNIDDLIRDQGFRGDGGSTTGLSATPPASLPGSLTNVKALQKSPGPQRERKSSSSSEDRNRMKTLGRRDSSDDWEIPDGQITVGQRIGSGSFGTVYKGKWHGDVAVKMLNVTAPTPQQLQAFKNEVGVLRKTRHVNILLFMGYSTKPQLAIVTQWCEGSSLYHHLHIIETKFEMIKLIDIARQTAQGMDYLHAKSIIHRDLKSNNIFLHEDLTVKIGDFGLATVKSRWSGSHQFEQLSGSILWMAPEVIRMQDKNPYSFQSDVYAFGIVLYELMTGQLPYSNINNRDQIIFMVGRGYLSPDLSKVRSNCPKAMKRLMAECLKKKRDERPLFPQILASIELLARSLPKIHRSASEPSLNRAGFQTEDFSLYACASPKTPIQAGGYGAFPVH
Kind of experiment: BaF3 BRAF-KIAA1549 fusion cell proliferation assay (CellTiterGlo, 96 hours). The experiment is classed as cell-based. To be noted: Table A1. The procedure: Retroviral Production: The BRAF-KIAA1549 fusion mutant was subcloned into pMXs-IRES-Blasticidin (RTV-016, Cell Biolabs, San Diego, CA). Retrovirus was produced by transfection of HEK 293T cells with the retroviral BRAF mutant expression vector pMXs-IRES-Blasticidin (RTV-016, Cell Biolabs), pCMV-Gag-Pol vector and pCMV-VSV-G-Envelope vector. Briefly, HEK 293T cells were plated in Poly-D-lysine coated 6-well plate (2.5×10^5 cells per well) and incubated overnight. The next day, retroviral plasmids (1 μg of BRAF-KIAA fusion mutant, 0.32 μg of pCMV-Gag-Pol and 0.165 μg pCMV-VSV-G) were mixed in 300 μL of Optimem (31985, Life Technologies). The mixture was incubated at room temperature for 5 minutes and then added to Optimem containing transfection reagent Lipofectamine (11668, Invitrogen) and incubated for 20 minutes. The mixture was then added dropwise to HEK 293T cells. The next day the medium was replaced with fresh culture medium and retrovirus was harvested at 24 hours.
Generation of BRAF-KIAA1549 fusion stable cell line: BaF3 cells were plated in V-bottom 96 well plate (COSTAR #3894) in 80 μL of RPMI/10% FBS and 0.01 ng/mL mouse IL-3, supplemented with 8 μg/mL polybrene (4×10^4 cells/well). Cells were transduced with 20 μL of BRAF-KIAA1549 fusion viral supernatant by centrifuging for 30 minutes at 1000 rpm. Cells were placed in a 37° C. incubator overnight. Next day 100 μL of RPMI/10% FBS and 0.01 ng/mL mouse IL-3 was added. After 24 hours, 100 μL of cells were transferred to a 24 well plate containing 900 μL of RPM/10% FBS and 15 μg/mL Blasticidin. Contents of the 24 well plate were sampled for cell viability via CellTiterGlo (Promega) over a 2-week period.
Assay for cell proliferation: BaF3 BRAF-KIAA1549 fusion cells were resuspended at 1.5×10^5 c/mL in RPMI containing 10% Heat Inactivated FBS, 1% L-glutamine and dispensed in duplicate (7×10^4 c/well) into 384 well plates. To determine the effect of compound on cell proliferation, BaF3 BRAF-KIAA1549 fusion cells were incubated for 96 hours in the presence of vehicle control (DMSO) or compound at varying concentrations. Inhibition of cell growth was determined by luminescent quantification (Envision by Perkin Elmer) of intracellular ATP content using CellTiterGlo (Promega), according to the protocol provided by the manufacturer. To determine the IC50 values, the vehicle-treated cells were normalized as viable cells and analyzed using the CDD Vault, Collaborative Drug Discovery, Burlingame, CA (the Levenberg-Marquardt algorithm; Levenberg, K., […]; Marquardt, D., 1963).
Tables A1 and A2 assign each compound a code for potency in the BaF3 BRAF-KIAA1549 fusion cell proliferation assay: A, B, C, or D. According to the code, A represents an IC50 value <20 nM; B represents an IC50 value ≥20 nM and <100 nM; C represents an IC50 value ≥100 nM and <500 nM; and D represents an IC50 value ≥500 nM.
For orientation: ATP-based viability assays read luminescence as a measure of living cells.

The compound `CNc1cc2ncc(-c3cc(NC(=O)c4cc(C5(C#N)CC5)ccn4)ccc3C)cc2cn1` [Compound 16, 4-(1-Cyanocyclopropyl)-N-(4-methyl-3-(7-(methylamino)-1,6-naphthyridin-3-yl)phenyl)picolinamide] showed a GI50 of less than 20 nM.

With `CNc1cc2ncc(-c3cc(NC(=O)c4ccnc(C5CC(F)(F)C5)c4)ccc3C)cc2cn1` [Compound 17, 2-(3,3-Difluorocyclobutyl)-N-(4-methyl-3-(7-(methylamino)-1,6-naphthyridin-3-yl)phenyl)isonicotinamide], the GI50 was less than 20 nM.

Turning to `CNc1cc2ncc(-c3cc(NC(=O)c4ccnc(C5(F)CC5)c4)ccc3C)cc2cn1` [Compound 18, 2-(1-Fluorocyclopropyl)-N-(4-methyl-3-(7-(methylamino)-1,6-naphthyridin-3-yl)phenyl)isonicotinamide], the GI50 is less than 20 nM.

The compound `CNc1cc2ncc(-c3cc(NC(=O)c4cccc(N(C)C)c4)cnc3C)cc2cn1` [Compound 19, 3-(Dimethylamino)-N-(6-methyl-5-(7-(methylamino)-1,6-naphthyridin-3-yl)pyridin-3-yl)benzamide] displayed a GI50 of less than 20 nM.

Take `CNc1cc2ncc(-c3cc(NC(=O)c4cc(C(F)(F)F)ccn4)cnc3C)cc2cn1` [Compound 20, N-(6-Methyl-5-(7-(methylamino)-1,6-naphthyridin-3-yl)pyridin-3-yl)-4-(trifluoromethyl)picolinamide]: the GI50 is less than 20 nM.

Compound `CNc1cc2ncc(-c3cc(NC(=O)c4cncc(C(F)(F)F)c4)cnc3C)cc2cn1` [Compound 21, N-(6-Methyl-5-(7-(methylamino)-1,6-naphthyridin-3-yl)pyridin-3-yl)-5-(trifluoromethyl)nicotinamide] showed a GI50 of 20 to 100 nM.

For the compound `CNc1cc2ncc(-c3cc(NC(=O)c4cc(C(F)F)ccn4)cnc3C)cc2cn1` [Compound 22, 4-(Difluoromethyl)-N-(6-methyl-5-(7-(methylamino)-1,6-naphthyridin-3-yl)pyridin-3-yl)picolinamide], the GI50 was 20 to 100 nM.

The compound `CNc1cc2ncc(-c3cc(NC(=O)c4cc(C(C)(F)F)ccn4)cnc3C)cc2cn1` [Compound 23, 4-(1,1-Difluoroethyl)-N-(6-methyl-5-(7-(methylamino)-1,6-naphthyridin-3-yl)pyridin-3-yl)picolinamide] came in with a GI50 of 20 to 100 nM.

In turn, `CNc1cc2ncc(-c3cc(NC(=O)c4ccnc(C(C)(C)F)c4)cnc3C)cc2cn1` [Compound 24, 2-(2-Fluoropropan-2-yl)-N-(6-methyl-5-(7-(methylamino)-1,6-naphthyridin-3-yl)pyridin-3-yl)isonicotinamide] showed a GI50 of less than 20 nM.

`CNc1cc2ncc(-c3cc(NC(=O)c4cc(C(F)(F)F)c(C)cn4)cnc3C)cc2cn1` [Compound 25, 5-Methyl-N-(6-methyl-5-(7-(methylamino)-1,6-naphthyridin-3-yl)pyridin-3-yl)-4-(trifluoromethyl)picolinamide] came in with a GI50 of 20 to 100 nM.

As for `CNc1cc2ncc(-c3cc(NC(=O)c4nccc(C(F)(F)F)c4Cl)cnc3C)cc2cn1` [Compound 26, 3-Chloro-N-(6-methyl-5-(7-(methylamino)-1,6-naphthyridin-3-yl)pyridin-3-yl)-4-(trifluoromethyl)picolinamide], the 50% growth inhibitory concentration (GI50) was in the range of 20 to 100 nM.

In turn, `CNc1cc2ncc(-c3cc(NC(=O)c4ccnc(C(F)(F)F)c4)cnc3C)cc2cn1` [Compound 27, N-(6-Methyl-5-(7-(methylamino)-1,6-naphthyridin-3-yl)pyridin-3-yl)-2-(trifluoromethyl)isonicotinamide] gave a concentration for 50% growth inhibition (GI50) of less than 20 nM.

In the case of `CNc1cc2ncc(-c3cc(NC(=O)c4ccnc(C(F)F)c4)cnc3C)cc2cn1` [Compound 28, 2-(Difluoromethyl)-N-(6-methyl-5-(7-(methylamino)-1,6-naphthyridin-3-yl)pyridin-3-yl)isonicotinamide], the 50% growth inhibitory concentration (GI50) fell in the range of 100 to 500 nM.

In turn, `CNc1cc2ncc(-c3cc(NC(=O)c4ccnc(C(C)(F)F)c4)cnc3C)cc2cn1` [Compound 29, 2-(1,1-Difluoroethyl)-N-(6-methyl-5-(7-(methylamino)-1,6-naphthyridin-3-yl)pyridin-3-yl)isonicotinamide] yielded a GI50 of less than 20 nM.

With `CNc1cc2ncc(-c3cc(NC(=O)c4cc(C(C)(C)C#N)ccn4)cnc3C)cc2cn1` [Compound 30, 4-(2-Cyanopropan-2-yl)-N-(6-methyl-5-(7-(methylamino)-1,6-naphthyridin-3-yl)pyridin-3-yl)picolinamide], the GI50 fell in the range of 20 to 100 nM.

For `CNc1cc2ncc(-c3cc(NC(=O)c4cc(C5(C#N)CCC5)ccn4)cnc3C)cc2cn1` [Compound 31, 4-(1-Cyanocyclobutyl)-N-(6-methyl-5-(7-(methylamino)-1,6-naphthyridin-3-yl)pyridin-3-yl)picolinamide], the concentration for 50% growth inhibition (GI50) fell in the range of 20 to 100 nM.

As for `CNc1cc2ncc(-c3cc(NC(=O)c4cc(C5(C#N)CC5)ccn4)cnc3C)cc2cn1` [Compound 32, 4-(1-Cyanocyclopropyl)-N-(6-methyl-5-(7-(methylamino)-1,6-naphthyridin-3-yl)pyridin-3-yl)picolinamide], the concentration for 50% growth inhibition (GI50) is less than 20 nM.

Compound `CNc1cc2ncc(-c3cc(NC(=O)c4ccnc(C5(F)CC5)c4)cnc3C)cc2cn1` [Compound 33, 2-(1-Fluorocyclopropyl)-N-(6-methyl-5-(7-(methylamino)-1,6-naphthyridin-3-yl)pyridin-3-yl)isonicotinamide] showed a GI50 of less than 20 nM.

Turning to `CNc1cc2ncc(-c3cc(NC(=O)c4ccnc(C5CC(F)(F)C5)c4)cnc3C)cc2cn1` [Compound 34, 2-(3,3-Difluorocyclobutyl)-N-(6-methyl-5-(7-(methylamino)-1,6-naphthyridin-3-yl)pyridin-3-yl)isonicotinamide], the GI50 was 20 to 100 nM.

For the compound `CNc1cc2ncc(-c3cc(NC(=O)c4cc(C(C)(C)C#N)ccn4)c(F)cc3Cl)cc2cn1` [Compound 37, N-(4-Chloro-2-fluoro-5-(7-(methylamino)-1,6-naphthyridin-3-yl)phenyl)-4-(2-cyanopropan-2-yl)picolinamide], the GI50 lay in the range of 20 to 100 nM.

Regarding `CNc1cc2ncc(-c3cc(NC(=O)c4cc(C(C)(C)C#N)ccn4)cc(F)c3C)cc2cn1` [Compound 38, 4-(2-Cyanopropan-2-yl)-N-(3-fluoro-4-methyl-5-(7-(methylamino)-1,6-naphthyridin-3-yl)phenyl)picolinamide], the GI50 fell in the range of 20 to 100 nM.

Consider `CNc1cc2ncc(-c3cc(NC(=O)c4cc(C(C)(C)C#N)ccn4)cc(F)c3F)cc2cn1` [Compound 39, 4-(2-Cyanopropan-2-yl)-N-(3,4-difluoro-5-(7-(methylamino)-1,6-naphthyridin-3-yl)phenyl)picolinamide], for which the GI50 fell in the range of 20 to 100 nM.

With `CNc1cc2ncc(-c3cc(NC(=O)c4cc(C(C)(C)C#N)ccn4)ccc3F)cc2cn1` [Compound 40, 4-(2-cyanopropan-2-yl)-N-(4-fluoro-3-(7-(methylamino)-1,6-naphthyridin-3-yl)phenyl)picolinamide], the GI50 fell in the range of 20 to 100 nM.

Take `CNc1cc2ncc(-c3cc(NC(=O)c4cc(C(C)(C)C#N)ccn4)ccc3Cl)cc2cn1` [Compound 41, N-(4-Chloro-3-(7-(methylamino)-1,6-naphthyridin-3-yl)phenyl)-4-(2-cyanopropan-2-yl)picolinamide]: the GI50 fell in the range of 20 to 100 nM.

`CNc1cc2ncc(-c3cc(NC(=O)c4cc(C(C)(C)C#N)ccn4)c(F)cc3C)cc2cn1` [Compound 42, 4-(2-Cyanopropan-2-yl)-N-(2-fluoro-4-methyl-5-(7-(methylamino)-1,6-naphthyridin-3-yl)phenyl)picolinamide] came in with a GI50 of 20 to 100 nM.

For `CNc1cc2ncc(-c3cc(NC(=O)c4cc(C(C)(C)C#N)ccn4)c(F)cc3F)cc2cn1` [Compound 43, 4-(2-Cyanopropan-2-yl)-N-(2,4-difluoro-5-(7-(methylamino)-1,6-naphthyridin-3-yl)phenyl)picolinamide], the GI50 fell in the range of 20 to 100 nM.
